Results taken from publication PMC10627047, “Flavone-based dual PARP-Tubulin inhibitor manifesting efficacy against endometrial cancer” (Journal of Enzyme Inhibition and Medicinal Chemistry, 2023).
Where “and” joins values, the source holds several entries; their conditions need not be identical. Equal values may be shown once.

Assays:
[1] = system: Ishikawa cells; assay: Mitochondrial membrane potential (rhodamine 123 staining); assay type: cell-based, human; conditions: Ishikawa cells, 0.1, 0.5 and 1 μM, 24 h
Experimental: Mitochondrial membrane potential was measured by rhodamine-123 (RH-123) staining. Ishikawa cells were treated at 0.1, 0.5, and 1 μM of compound 14. Rhodamine dyes accumulate within active and polarised mitochondria under physiological conditions, resulting in robust fluorescence signals. A decline in rhodamine fluorescence intensity is observed when the dyes fail to accumulate within the mitochondria. This happens when the mitochondrial transmembrane potential is compromised. […] The decreased fluorescence patterns associated with apoptotic cell death indicate progressive dissipation of the mitochondrial transmembrane potential (Figure 12).
Rhodamine staining was employed to investigate apoptosis induced by compound 14 in Ishikawa cells. Under physiological conditions, rhodamine dyes are known to accumulate within active and polarised mitochondria, resulting in robust fluorescence signals. However, when the mitochondrial transmembrane potential is compromised the dyes fail to accumulate within the mitochondria, leading to a decline in rhodamine fluorescence intensity. The Rhodamine staining protocol followed was as follows: Ishikawa cells were treated at 0.1, 0.5, and 1 μM for 24 h, and RH-123 (1 μg) (Cat No. R8004) was added 30 min before the termination of the experiment and then washed with PBS before analysis on a fluorescence microscope.[61]

[2] = system: LC3 in Ishikawa cells; assay: Western blotting, cleavage of LC-3; assay type: cell-based, human; conditions: Ishikawa cells, 100, 500 and 1000 nM, 24 h
Experimental: Literature precedents indicate that autophagy triggers the cleavage of tubulin-associated protein LC-3 yielding cytosolic LC3-I (18 kDa) and autophagosome-associated LC3-II (16 kDa).[50–58] Thus, the ability of compound 14 was evaluated to induce the cleavage of this cytosolic protein. […] Considering the aforementioned cleavage of cytosolic microtubule-associated protein light chain-3 (LC3)-I into LC3-II as an autophagy-specific marker, it was deduced that 14 is an autophagy inducer.
Ishikawa cells were treated with compound-14 at 100, 500, and 1000 nM concentrations for 24 h. After 24h cells were collected and centrifuged at 400 g, washed in PBS and cell pellets were lysed in RIPA buffer in preparation of the whole cell lysate. Supernatants were collected and proteins were estimated using the Bradford reagent. An equal amount of protein (60–80 µg) was loaded into each well for SDS-PAGE. Blocking was done with 5% BSA at room temperature with shaking for 2 h. After the SDS page run was completed, we washed the PVDF membrane and then blocking was done. Blots were incubated with different primary antibodies(1:1000 dilutions), and secondary antibodies (1:10 000 dilutions) and chemiluminescence was captured on Chemidoc after incubating the blots in ECL plus solution. […]

[3] = target: T1, PARP1 (Homo sapiens, UniProt P09874); assay: PARP inhibitory assay (NAD/NADH-Glo endpoint, Reaction Biology); assay type: biochemical; conditions: 10-dose IC50, 3-fold serial dilution
T1 construct: Reaction Biology Corporation (assay service)
Experimental: (§1) As such, PARP enzymatic activity transfers ADP-ribose from NAD + substrate into the PAR chain on histone substrate. The amount of NAD + remaining after the enzymatic activity was quantified using the Promega NAD/NADH-Glo™ assay kit, in the endpoint PARP activity assay.
(§2) Enzyme inhibition assays were performed by the Reaction Biology Corporation, Malvern, PA. (http://www.reactionbiology.com). PARP enzymatic activity transfers ADP-ribose from NAD + substrate into the PAR chain on histone substrate. […] NAD+ (Nicotinamide Adenine Dinucleotide), 500 nM; Protein substrate for PARP1, core histones from chicken, 10 µg/mL; protein substrate for PARP2, 5 µM.

[4] = target: T2, PARP2 (Homo sapiens, UniProt Q9UGN5); assay: as above; assay type: biochemical; conditions: 10-dose IC50, 3-fold serial dilution
T2 construct: Reaction Biology Corporation (assay service)
Experimental: as §1, §2

[5] = system: Ishikawa cell lines; assay: In-vitro cytotoxicity (MTT cell viability assay); assay type: cell-based; conditions: Homo sapiens; Ishikawa cell lines, MTT, 48 h incubation, mean ± SD, at least three experiments; read-out: IC50 values (Ishikawa cell lines, µM ± SD), in-vitro growth inhibition
Experimental: The cell growth inhibitory effects of the synthesised compounds were evaluated against Ishikawa cell lines. […] Forth, the synthesised compounds bearing a substituted phenyl ring at position 2 of the biaryl arm bearing benzopyrans were profiled for the cytotoxic effects. Noteworthy to mention that diverse substitutions with varied electronic effects viz fluorine (−I, +R), methoxy (−I, +R), and nitro (−I and − R) were made on the phenyl ring (position 2 of benzopyran). Also, the trimethoxy phenyl ring well established as an imperative structural feature of tubulin inhibitors was tethered to the benzopyran scaffold (20, 21).
Ishikawa cells (a human endometrial carcinoma of the epithelial cell) were kindly gifted by Dr. Geetanjali Sachdeva and Dr. Uddhav Chaudhari of National Institute for Research In Reproductive and Child Health (NIRRCH), Mumbai. […] The cells were maintained in RPMI medium supplemented with 10% Foetal bovine serum (FBS) and 100 IU/mL penicillin.
Mitochondrial activity was evaluated by MTT assay.[59] This assay is based on enzymatic reduction of the yellow-colored MTT dye to purple-colored formazan crystals by a variety of mitochondrial and cytosolic enzymes that are operational in viable cells. Briefly, […] (3000 cells/well) were seeded in 100 µL of medium into a 96-well plate and left to settle in a CO2 incubator. […] Then 150 μL of DMSO was added to each well to dissolve the formazan crystals. The optical density (OD) of each well was recorded using a microplate reader at a wavelength of 570 nm. The percentages of cell viability and growth inhibition were calculated according to the following equations. Cell viability (%) = [(OD of treated cells-OD of blank)/(OD of control-OD of blank) ×100].

[6] = system: Ishikawa cells; assay: Nuclear and cellular morphology (DAPI staining), apoptosis; assay type: cell-based, human; conditions: Ishikawa cells, 0.1, 0.5 and 1 μM, 24 h
Experimental: Ishikawa cell lines were treated with compound 14 at concentrations of 0.1, 0.5, and 1 μM for 24 h. Cellular morphology was observed by an inverted microscope. DAPI staining was done to monitor the nuclear morphology. […] Thus, the results were indicative of the apoptosis-inducing ability of compound 14 (Figure 9).
Ishikawa was treated with compounds 14 at concentrations of 0.1, 0.5, and 1 μM for 24 h. Briefly, cells were collected, washed twice with PBS, and fixed with methanol: acetic acid (3:1 ratio v/v). The next day, cells were washed and dispensed in 50 μL of fixing solution. Cells were then spread on clean slides, and exposed to DAPI solution (4′,6-diamidino-2-phenylindole(DAPI) (CAS Number: 28718–90-3) (5 μg/mL in 0.01 M citric acid and 0.45 M disodium phosphate containing 0.05% Tween 20) for 30 min at room temperature. The slides were then rinsed with distilled water for 10 min, and washed with PBS. After drying, the slides were mounted with glycerol: PBS (1:1 ratio v/v) and observed under the fluorescent microscope to figure out any nuclear morphological changes that occur during apoptosis.[60]

T1 sequence (P09874 whole entry): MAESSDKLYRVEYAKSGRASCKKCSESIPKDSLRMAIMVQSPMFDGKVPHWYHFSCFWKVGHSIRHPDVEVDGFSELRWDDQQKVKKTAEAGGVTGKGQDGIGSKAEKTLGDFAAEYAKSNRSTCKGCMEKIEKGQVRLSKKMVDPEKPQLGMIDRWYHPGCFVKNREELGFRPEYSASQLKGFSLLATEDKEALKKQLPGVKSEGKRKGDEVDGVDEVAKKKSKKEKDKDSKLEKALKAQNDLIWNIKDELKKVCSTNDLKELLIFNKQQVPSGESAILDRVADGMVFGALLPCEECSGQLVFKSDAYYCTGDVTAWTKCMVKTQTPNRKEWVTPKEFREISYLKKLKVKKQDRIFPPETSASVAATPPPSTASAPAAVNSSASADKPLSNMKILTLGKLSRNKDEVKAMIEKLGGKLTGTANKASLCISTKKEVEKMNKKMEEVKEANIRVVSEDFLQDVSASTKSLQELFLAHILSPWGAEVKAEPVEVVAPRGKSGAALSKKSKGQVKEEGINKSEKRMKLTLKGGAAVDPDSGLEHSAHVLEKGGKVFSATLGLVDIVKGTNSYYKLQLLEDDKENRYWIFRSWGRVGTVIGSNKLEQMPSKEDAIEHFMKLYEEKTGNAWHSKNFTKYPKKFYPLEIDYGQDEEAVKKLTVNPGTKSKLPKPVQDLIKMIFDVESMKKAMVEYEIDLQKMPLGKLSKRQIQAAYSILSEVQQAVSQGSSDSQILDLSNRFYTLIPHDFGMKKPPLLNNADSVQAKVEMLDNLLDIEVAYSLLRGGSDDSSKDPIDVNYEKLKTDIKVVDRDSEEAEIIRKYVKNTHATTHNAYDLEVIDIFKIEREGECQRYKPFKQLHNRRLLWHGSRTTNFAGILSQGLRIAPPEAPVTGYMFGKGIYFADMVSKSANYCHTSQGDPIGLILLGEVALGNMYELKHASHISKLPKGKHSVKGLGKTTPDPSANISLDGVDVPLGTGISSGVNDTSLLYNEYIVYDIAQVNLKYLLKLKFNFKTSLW
T2 sequence (Q9UGN5 whole entry): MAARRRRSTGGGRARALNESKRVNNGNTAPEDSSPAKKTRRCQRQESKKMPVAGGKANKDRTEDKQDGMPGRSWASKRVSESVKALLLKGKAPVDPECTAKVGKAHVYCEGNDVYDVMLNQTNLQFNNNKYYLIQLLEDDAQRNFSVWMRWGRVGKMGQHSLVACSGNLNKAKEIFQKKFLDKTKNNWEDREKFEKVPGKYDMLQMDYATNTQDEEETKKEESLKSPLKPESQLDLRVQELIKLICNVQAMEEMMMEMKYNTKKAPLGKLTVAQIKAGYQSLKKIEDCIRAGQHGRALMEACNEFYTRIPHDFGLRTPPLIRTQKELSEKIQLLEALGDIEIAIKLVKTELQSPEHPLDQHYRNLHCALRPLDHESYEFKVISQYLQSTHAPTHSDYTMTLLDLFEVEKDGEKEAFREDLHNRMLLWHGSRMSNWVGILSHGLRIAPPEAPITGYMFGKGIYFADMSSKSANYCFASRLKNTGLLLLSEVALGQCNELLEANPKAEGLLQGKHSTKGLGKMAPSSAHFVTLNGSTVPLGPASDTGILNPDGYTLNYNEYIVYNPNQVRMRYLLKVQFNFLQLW

IC50 [3]: 74 nM and 74.6 nM
IC50 [4]: 109 nM
SMILES: O=c1cc(-c2ccc(F)cc2)oc2cc(-c3ccoc3)ccc12 [Compound 14, 2–(4-fluorophenyl)-7-(furan-3-yl)-4H-chromen-4-one]
Mitochondrial membrane potential (rhodamine 123 fluorescence) [1]: reduction in rhodamine fluorescence in a concentration-dependent manner
Cleavage of LC-3 (autophagy marker, western blot) [2]: concentration-dependent cleavage of LC3
IC50 [5]: 1 ± 0.4 µM
Apoptosis induction (nuclear morphology, DAPI staining) [6]: concentration-dependent increase in the number of scattered apoptotic bodies
